In the supplement of paper PMC13380429:

Legend:
Settings in all cases: 72 h
HepG2 [1] = experiment: relative viability EC50 (midpoint between 100% and the lowest measured viability); higher = less toxic
Caco-2 [2] = experiment: as above
Calu-3 [3] = experiment: as above
Vero E6 [4] = experiment: as above
U2OS [5] = experiment: as above
HepG2 [6] = experiment: cell viability relative to DMSO; higher = less toxic
Caco-2 [7] = experiment: as above
Calu-3 [8] = experiment: as above
Vero E6 [9] = experiment: as above
U2OS [10] = experiment: as above
HepG2 [11] = experiment: drug sensitivity score (DSS) for viability; higher = more toxic; extreme values may be limits of the assay
Caco-2 [12] = experiment: as above
Calu-3 [13] = experiment: as above
Vero E6 [14] = experiment: as above
U2OS [15] = experiment: as above

| SMILES | relative viability EC50 (HepG2 [1]) [µM] | relative viability EC50 (Caco-2 [2]) [µM] | relative viability EC50 (Calu-3 [3]) [µM] | relative viability EC50 (Vero E6 [4]) [µM] | relative viability EC50 (U2OS [5]) [µM] | cell viability (HepG2 [6]; 1 nM) [%] | cell viability (HepG2 [6]; 10 nM) [%] | cell viability (HepG2 [6]; 100 nM) [%] | cell viability (HepG2 [6]; 1000 nM) [%] | cell viability (HepG2 [6]; 10000 nM) [%] | cell viability (Caco-2 [7]; 1 nM) [%] | cell viability (Caco-2 [7]; 10 nM) [%] | cell viability (Caco-2 [7]; 100 nM) [%] | cell viability (Caco-2 [7]; 1000 nM) [%] | cell viability (Caco-2 [7]; 10000 nM) [%] | cell viability (Calu-3 [8]; 1 nM) [%] | cell viability (Calu-3 [8]; 10 nM) [%] | cell viability (Calu-3 [8]; 100 nM) [%] | cell viability (Calu-3 [8]; 1000 nM) [%] | cell viability (Calu-3 [8]; 10000 nM) [%] | cell viability (Vero E6 [9]; 1 nM) [%] | cell viability (Vero E6 [9]; 10 nM) [%] | cell viability (Vero E6 [9]; 100 nM) [%] | cell viability (Vero E6 [9]; 1000 nM) [%] | cell viability (Vero E6 [9]; 10000 nM) [%] | cell viability (U2OS [10]; 1 nM) [%] | cell viability (U2OS [10]; 10 nM) [%] | cell viability (U2OS [10]; 100 nM) [%] | cell viability (U2OS [10]; 1000 nM) [%] | cell viability (U2OS [10]; 10000 nM) [%] | drug sensitivity score (HepG2 [11]) | drug sensitivity score (Caco-2 [12]) | drug sensitivity score (Calu-3 [13]) | drug sensitivity score (Vero E6 [14]) | drug sensitivity score (U2OS [15]) |
| --- | --- | --- | --- | --- | --- | --- | --- | --- | --- | --- | --- | --- | --- | --- | --- | --- | --- | --- | --- | --- | --- | --- | --- | --- | --- | --- | --- | --- | --- | --- | --- | --- | --- | --- | --- |
| CC(C)OC(=O)C1=CN(C(=O)c2ccc(F)c(F)c2)CC(C)(C)c2c1[nH]c1ccccc21 | > 10 | > 10 | > 10 | > 10 | > 10 | 95.3 | 102 | 97.3 | 92.1 | 112 | 84.5 | 99.7 | 86.1 | 95.2 | 89.3 | 104 | 91.3 | 103 | 96.5 | 97.8 | 101 | 97.6 | 95.4 | 98.7 | 98.9 | 98.3 | 99.6 | 95.9 | 100 | 96.3 | 0 | 0 | 0 | 0 | 0 |
| c1ccc2sc(SNC3CCCCC3)nc2c1 [N-cyclohexyl-2-benzothiazolesulfenamide] | > 10 | > 10 | > 10 | > 10 | > 10 | 97.5 | 105 | 84.2 | 97.4 | 100 | 92.5 | 102 | 116 | 101 | 105 | 105 | 99.6 | 101 | 84 | 94.7 | 110 | 106 | 100 | 107 | 87.1 | 95.1 | 95 | 100 | 96.6 | 100 | 0 | 0 | 1.6 | 0 | 0 |
| O=C(Nc1cnn2ccc(N3CCC[C@@H]3c3cc(F)ccc3F)nc12)N1CC[C@H](O)C1 [larotrectinib] | > 10 | > 10 | > 10 | > 10 | > 10 | 98.1 | 108 | 103 | 105 | 103 | 93.9 | 92.8 | 85.3 | 101 | 86 | 96.8 | 106 | 94.9 | 94.7 | 112 | 97.9 | 94.3 | 101 | 105 | 93.6 | 97.2 | 105 | 97.9 | 98.1 | 99.6 | 0 | 0 | 0 | 0 | 0 |
| NS(=O)(=O)c1cc2c(cc1Cl)NC(CC1CCCC1)NS2(=O)=O (stereo not given) [cyclopenthiazide] | > 10 | > 10 | > 10 | > 10 | > 10 | 111 | 103 | 101 | 99.1 | 102 | 102 | 106 | 90.4 | 98.6 | 90.4 | 96.8 | 105 | 97.6 | 97.7 | 96.4 | 102 | 91 | 98.9 | 94.9 | 99.9 | 100 | 104 | 98.8 | 107 | 96.6 | 0 | 0 | 0 | 0 | 0 |
| Cc1cc(C(=O)N2Cc3cnn(C)c3Nc3ccccc32)ccc1CNC(=O)N1CCC[C@H]1C(=S)N1CCCN(C)CC1 [TC-OT-39] | > 10 | > 10 | > 10 | > 10 | > 10 | 100 | 90.3 | 97 | 104 | 96.8 | 99.8 | 92.2 | 98.7 | 106 | 100 | 98.1 | 84.4 | 105 | 97.9 | 90 | 95.3 | 98.6 | 94.4 | 97.5 | 102 | 97.7 | 100 | 106 | 98 | 101 | 0 | 0 | 0 | 0 | 0 |
| COc1cccc(-c2cc(F)ccc2[C@H]2Cc3nc(N)nc(C)c3C(=O)N2)n1 [NVP-HSP990] | 0.0343 | 0.0094 | 0.0427 | 0.0697 | 0.0446 | 105 | 104 | 0.7 | 0.2 | 0.5 | 110 | 67.8 | 51.1 | 42.2 | 41 | 108 | 97.1 | 43.5 | 34.4 | 36.2 | 101 | 112 | 47.3 | 27.8 | 26.6 | 102 | 94.9 | 19.3 | 2.5 | 3.2 | 30 | 22.6 | 19.3 | 19.6 | 27.7 |
| O=c1[nH]c2cc(C(F)(F)F)c(N3CCOCC3)cc2n(CP(=O)(O)O)c1=O | > 10 | > 10 | > 10 | > 10 | > 10 | 95.4 | 104 | 107 | 90.5 | 99.1 | 102 | 92.8 | 98.5 | 106 | 93.9 | 108 | 106 | 98 | 99.7 | 109 | 105 | 99.8 | 99.6 | 102 | 101 | 97.3 | 102 | 103 | 104 | 99.7 | 0 | 0 | 0 | 0 | 0 |
| Cc1cc(Nc2nc(N[C@@H](C)c3ncc(F)cn3)ncc2Cl)[nH]n1 [AZD1480] | > 10 | > 10 | > 10 | > 10 | > 10 | 98.6 | 101 | 96.5 | 87.9 | 89.4 | 93.2 | 102 | 95.5 | 102 | 84.2 | 106 | 91.6 | 99.7 | 96.6 | 90.8 | 94.3 | 96.2 | 95.9 | 100 | 97.9 | 99.7 | 102 | 102 | 101 | 97 | 0.7 | 0.2 | 0 | 0 | 0 |
| Cc1cc(C)n(-c2cccc([C@H](CC(=O)O)CN3CC[C@@H](CCc4ccc5c(n4)NCCC5)C3)c2)n1 [integrin-antagonist-1] | > 10 | > 10 | > 10 | > 10 | > 10 | 107 | 97.8 | 104 | 97.8 | 99.9 | 104 | 102 | 94.4 | 99 | 105 | 92.1 | 98 | 101 | 96.6 | 98.4 | 99.2 | 102 | 105 | 95 | 99.1 | 104 | 95.6 | 104 | 103 | 97.2 | 0 | 0 | 0 | 0 | 0 |
| C=CCc1ccc(O)c(-c2cc(CC=C)ccc2O)c1 [magnolol] | > 10 | > 10 | > 10 | > 10 | > 10 | 97.8 | 85.7 | 97.8 | 102 | 106 | 104 | 95.3 | 88.6 | 102 | 89.5 | 99.3 | 90.3 | 90.3 | 99.4 | 110 | 98.6 | 98.3 | 98.9 | 101 | 94.8 | 96.7 | 102 | 99.2 | 102 | 95.3 | 0 | 0 | 0 | 0 | 0 |
| Cn1nc(C(C)(C)C)cc1C(=O)N[C@@H](Cc1cccc(Cl)c1)C(=O)NCC#N [cathepsin-inhibitor-1] | > 10 | > 10 | > 10 | > 10 | > 10 | 94 | 103 | 112 | 90.8 | 98.4 | 99.8 | 99.3 | 86.7 | 93.5 | 92.3 | 103 | 89.1 | 105 | 94.9 | 91.8 | 95 | 99.3 | 102 | 96.2 | 98.4 | 97.7 | 99.1 | 92.8 | 94.2 | 90.9 | 0 | 0 | 0 | 0 | 0 |
| c1ccc(Oc2nc(NC3CCCCC3)c3[nH]cnc3n2)cc1 [MRS-3777] | > 10 | > 10 | > 10 | > 10 | > 10 | 110 | 97.5 | 88.7 | 99.2 | 99.4 | 87 | 104 | 99.6 | 109 | 100 | 92.7 | 95.7 | 102 | 104 | 101 | 98.7 | 96.2 | 93.5 | 97.2 | 78.2 | 97.5 | 98.8 | 97.5 | 108 | 103 | 0 | 0 | 0 | 1.1 | 0 |
| COc1cc(OC)nc(O[C@H](C(=O)O)C(OC)(c2ccccc2)c2ccccc2)n1 [darusentan] | > 10 | > 10 | > 10 | > 10 | > 10 | 98.2 | 98.8 | 93.6 | 95.5 | 91.3 | 102 | 96.9 | 97.3 | 95.1 | 102 | 111 | 93.3 | 99.1 | 101 | 101 | 96.5 | 98.8 | 97.2 | 92.3 | 98.6 | 97.1 | 102 | 91 | 96.9 | 94.6 | 0 | 0 | 0 | 0 | 0 |
| CC(Cc1ccc(O)cc1)NCC(O)c1cc(O)cc(O)c1 (stereo not given) [fenoterol] | > 10 | > 10 | > 10 | > 10 | > 10 | 84.4 | 92.7 | 94 | 93.8 | 82.9 | 124 | 99.3 | 103 | 92.4 | 111 | 103 | 114 | 105 | 95.9 | 103 | 97.6 | 108 | 96.7 | 103 | 92.1 | 101 | 95.1 | 96.4 | 98.5 | 98.4 | 0 | 0 | 0 | 0 | 0 |
